Peptide text beside a SMILES is read from it.
assay: Inhibition of human SGLT1 expressed in xenopus laevis oocyte assessed as inhibition of methyl-alpha-D-[14C]glucopyranoside uptake after 1 hrs

In order of rising IC50:
1. NC(=O)CC[C@H](N)C(=O)N[C@@H](CO)C(=O)N1CCC[C@H]1C(=O)O [(S)-1-((S)-2-((S)-2,5-diamino-5-oxopentanamido)-3-hydroxypropanoyl)pyrrolidine-2-carboxylic acid] (H-Gln-Ser-Pro-OH)  0.16 nM
2. CC(=O)N1CCC[C@H]1C(=O)N[C@@H](CO)C(=O)N[C@@H](CCC(N)=O)C(=O)O [QSPac] (Ac-Pro-Ser-Gln-OH)  0.17 nM
3. NC(=O)CC[C@H](N)C(=O)N[C@@H](CS)C(=O)N1CCC[C@H]1C(=O)O [QCP] (H-Gln-Cys-Pro-OH)  2.1 nM
